From paper PMC6270778, “Novel Cinnamic Acid Derivatives as Antioxidant and Anticancer Agents: Design, Synthesis and Modeling Studies” (Molecules, 2014) come the findings set out here.

The nature of assay [1]: Interaction with the stable radical DPPH. The method, then: The novel acids were studied for the antioxidant activity by the use of the sTable 2,2-diphenyl-1-picrylhydrazyl radical (DPPH) at concentrations 0.05 and 0.1 mM after 20 and 60 min (Table 2). In the DPPH assay, the dominant chemical reaction involved is the reduction of the DPPH radical by single electron transfer SET from the antioxidant. Phenolic compounds eg. […] The compounds presented reducing abilities which ranged nearly 29% (4ii), small differences were found among the compounds with time and concentration. […] Due to steric reasons the interaction of DPPH with the tested compounds is low.
To a solution of DPPH in absolute ethanol the appropriate volume of the compounds (0.05 and 0.1 mM final concentrations) dissolved in DMSO was added. The absorbance was recorded at 517 nm after 20 and 60 min at room temperature (Table 3).

Assay [2] in a line: ABTS+ decolorization assay. The conditions noted are these: 0.1 mM. How it is done: The ABTS^•+ is derived from the oxidation of ABTS by potassium persulfate. It is a decolorization assay. The addition of electron-donating antioxidants leads to ABTS^•+ reduction. The chemistry taking place involves the direct generation of the ABTS^•+ with no involvement of an intermediary radical.
In this assay, ethanol is used for the dilution of the ABTS^+• solution. ABTS is dissolved in water to a 7 mM and reacts with 2.45 mM […] to produce the ABTS radical cation (ABTS^+•) by allowing the mixture to stand in the dark at room temperature for 12–16 h before use. Ten μL of diluted ABTS^+• solution (734 nm) is added to 10 μL of antioxidant compounds or Trolox standards (final concentration 0–0.1 mM) in ethanol and the absorbance is measured at 30 °C exactly 1 min after the initial mixing (Table 3).

The nature of assay [3]: Superoxide radical scavenging activity (non-enzymatic, PMS/NADH, NBT method). To be noted: 0.1 mM; no = no action under the used experimental conditions. The method, then:
The superoxide anion radical (O2^−·) is less toxic than the hydroxyl radical, but still being one of the most known toxic ROS. Two different experimental assays are followed for the determination of superoxide anion radical scavenging activity: (i) one involves an enzymatic production of superoxide anions and (ii) the other is supported by a non- enzymatic procedure. Herein the test is performed at 0.1 mM concentration, generating superoxide anion radicals by a non-enzymatically assay (Table 3). Compound 1i presented the highest activity, followed by compound 1ii (75% and 50%, respectively).
Superoxide radicals were produced non-enzymatically by mixing PMS, NADH and air–oxygen. The nitroblue tetrazolium method was used for the estimation of the produced radicals. The reaction mixture containing compounds (0.1 mM), 3 μM PMS, 78 μM NADH, and 25 μM NBT in 19 μM phosphate buffer pH 7.4 was incubated for 2 min at room temperature. The acrylic acids were preincubated for 2 min before adding NADH (Table 4) and the absorption was recorded at 560 nm.

Assay [4] is described as follows: Inhibition of linoleic acid peroxidation (AAPH). To be noted: 0.1 mM. From the text:
For the in vitro study of the free radical production, azo compounds generating free radicals through spontaneous thermal decomposition are used. The water soluble 2,2'-azobis(2-amidinopropane) hydrochloride (AAPH) is recommended as appropriate for measuring radical-scavenging activity in vitro. The activity of the peroxyl radicals produced by the action of AAPH greatly resembles to cellular activities such as lipid peroxidation. The phenyl substituted acids presented remarkable activity at 0.1 mM concentration (84%–92%) compared to the non-substituted derivatives (20%–63%).
For initiating the free radical, 2,2'-azobis(2-amidinopropane) dihydrochloride (AAPH) is used. The final solution in the UV cuvette consisted of ten microliters of the 16 mM linoleate sodium dispersion 0.93 mL of 0.05 M phosphate buffer, pH 7.4, thermostatted at 37 °C. 50 μL of 40 mM AAPH solution was added as a free radical initiator at 37 °C under air and 10 μL of the tested compounds. The oxidation of linoleic acid sodium salt results a conjugated diene hydroperoxide. The reaction is monitored at 234 nm (Table 3).

Assay [5] in a line: Hydroxyl radicals scavenging activity (Fe3+/ascorbic acid system, competition with DMSO). To be noted: 0.1 mM; no = no action under the used experimental conditions. How it is done: Thus we evaluated our acids for their competition with DMSO for ˙OH radicals was measured, hydroxyl radicals were produced by the Fe^3+/ascorbic acid system and expressed as percent inhibition of formaldehyde formation at 0.1 mM concentration (Table 3).
The hydroxyl radicals were produced by the Fe ^3+/ascorbic acid system. EDTA (0.1 mM), Fe ^3+ (167 μM), DMSO (33 mM) in phosphate buffer (50 mM, pH 7.4), the tested compounds (0.1 mM) and ascorbic acid (10 mM) were mixed in test tubes. The solutions were incubated at 37 °C for 30 min. The reaction was stopped by CCl3COOH (17% w/v) (Table 4) and the % scavenging activity of the tested compounds for hydroxyl radicals was given.

`CC(Cc1ccc(O)c(O)c1)C(C)Cc1ccc(O)c(O)c1` (stereo not drawn) [NDGA, nordihydroguaretic acid, reference compound]: the “RA % (±SD), DPPH” value in assay [1] (0.05 mM, 20 min) came to 85 ± 1.6%; in assay [1] (0.05 mM, 60 min) it was 83 ± 1.1%; in assay [1] (0.1 mM, 20 min), 81 ± 0.8%; in assay [1] (0.1 mM, 60 min), 83 ± 0.7%.

For the compound `O=C1O[C@H]([C@@H](O)CO)C(O)=C1O` [Ascorbic Acid, reference compound], the “ABTS+· (%) (±SD)” value in assay [2] came to 96 ± 0.9%.

For `O=C(O)/C=C/c1ccc(O)c(O)c1` [Caffeic acid, caffeic acid, reference compound], the “O2−· (%) (±SD)” value in assay [3] was determined as 46 ± 0.5%.

Turning to `Cc1c(C)c2c(c(C)c1O)CCC(C)(C(=O)O)O2` (stereo not drawn) [Trolox, reference compound], the “ABTS+· (%) (±SD)” value in assay [2] was 88 ± 1.7%. Moreover, in assay [4], the “AAPH (%) (±SD), inhibition of linoleic acid peroxidation” value was 63 ± 1.3%. In addition, the “HO (%) (±SD)” value in assay [5] was found to be 73 ± 1.0%.
